One assay relates to IKZF1 ZNF2 Q1F. Put plainly: In vitro ubiquitination screen of Ikaros MBP-ZNF2 Q1 mutants. To be noted: western blot. The format is biochemical, human. The source says: Structural studies reveal that position 1 of the G-motif is in close proximity to the compound when substrates are bound to cereblon/compound complexes (not shown). Alignment of the G-motif degron sequences of the IKZF family (FIG. 8) and predicted degrons within other C2H2 zinc fingers (FIG. 9) reveal a diverse set of amino acids at this position. Therefore, to identify additional compound:degron pairs, mutations were made in the Q1 position of IKZF1 ZNF2, and potential compounds were screened for activity against these mutants. Plasmids were built containing Ikaros MBP-ZNF2 (aa 141-196) with alternate amino acids at the Q1 position, and an in vitro ubiquitination screen was conducted using various compounds including Compound B (FIG. 10A).
For orientation: In western blotting, separated proteins are transferred to a membrane and probed.

The target in the next assay is T1, Helios (Homo sapiens, UniProt Q96SW2+Q9UKS7).
T1 construct: endogenous in cells; host or cells: Jurkat/Helios/HiBit cells (CRISPR/Cas9 knock-in)
T1 sequence (Q9UKS7 whole entry): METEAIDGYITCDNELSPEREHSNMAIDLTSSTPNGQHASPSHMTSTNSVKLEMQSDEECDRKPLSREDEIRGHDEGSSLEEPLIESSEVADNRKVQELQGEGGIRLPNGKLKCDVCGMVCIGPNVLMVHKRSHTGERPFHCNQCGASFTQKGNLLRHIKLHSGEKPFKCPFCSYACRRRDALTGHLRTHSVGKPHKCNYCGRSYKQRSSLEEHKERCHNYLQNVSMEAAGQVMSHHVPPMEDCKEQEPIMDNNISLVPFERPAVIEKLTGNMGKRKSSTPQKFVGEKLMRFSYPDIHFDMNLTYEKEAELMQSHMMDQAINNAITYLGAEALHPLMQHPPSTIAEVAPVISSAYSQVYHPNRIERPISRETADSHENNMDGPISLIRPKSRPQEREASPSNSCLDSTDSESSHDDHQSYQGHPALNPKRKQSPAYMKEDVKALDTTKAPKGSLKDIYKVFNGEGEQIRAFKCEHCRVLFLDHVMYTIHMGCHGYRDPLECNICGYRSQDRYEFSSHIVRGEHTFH
T1 sequence (Q96SW2 whole entry): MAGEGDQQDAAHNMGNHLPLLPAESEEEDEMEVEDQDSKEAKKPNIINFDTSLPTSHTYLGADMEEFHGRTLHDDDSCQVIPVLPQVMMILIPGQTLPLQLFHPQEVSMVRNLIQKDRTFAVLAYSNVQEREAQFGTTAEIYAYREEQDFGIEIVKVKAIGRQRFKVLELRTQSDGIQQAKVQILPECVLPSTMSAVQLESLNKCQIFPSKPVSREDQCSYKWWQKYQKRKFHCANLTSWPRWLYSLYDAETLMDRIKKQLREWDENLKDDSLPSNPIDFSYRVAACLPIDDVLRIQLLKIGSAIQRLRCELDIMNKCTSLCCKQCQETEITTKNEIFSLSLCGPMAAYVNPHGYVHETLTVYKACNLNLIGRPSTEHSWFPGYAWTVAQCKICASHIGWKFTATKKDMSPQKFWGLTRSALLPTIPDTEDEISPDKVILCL
T1 sequence (Q16531 whole entry partner): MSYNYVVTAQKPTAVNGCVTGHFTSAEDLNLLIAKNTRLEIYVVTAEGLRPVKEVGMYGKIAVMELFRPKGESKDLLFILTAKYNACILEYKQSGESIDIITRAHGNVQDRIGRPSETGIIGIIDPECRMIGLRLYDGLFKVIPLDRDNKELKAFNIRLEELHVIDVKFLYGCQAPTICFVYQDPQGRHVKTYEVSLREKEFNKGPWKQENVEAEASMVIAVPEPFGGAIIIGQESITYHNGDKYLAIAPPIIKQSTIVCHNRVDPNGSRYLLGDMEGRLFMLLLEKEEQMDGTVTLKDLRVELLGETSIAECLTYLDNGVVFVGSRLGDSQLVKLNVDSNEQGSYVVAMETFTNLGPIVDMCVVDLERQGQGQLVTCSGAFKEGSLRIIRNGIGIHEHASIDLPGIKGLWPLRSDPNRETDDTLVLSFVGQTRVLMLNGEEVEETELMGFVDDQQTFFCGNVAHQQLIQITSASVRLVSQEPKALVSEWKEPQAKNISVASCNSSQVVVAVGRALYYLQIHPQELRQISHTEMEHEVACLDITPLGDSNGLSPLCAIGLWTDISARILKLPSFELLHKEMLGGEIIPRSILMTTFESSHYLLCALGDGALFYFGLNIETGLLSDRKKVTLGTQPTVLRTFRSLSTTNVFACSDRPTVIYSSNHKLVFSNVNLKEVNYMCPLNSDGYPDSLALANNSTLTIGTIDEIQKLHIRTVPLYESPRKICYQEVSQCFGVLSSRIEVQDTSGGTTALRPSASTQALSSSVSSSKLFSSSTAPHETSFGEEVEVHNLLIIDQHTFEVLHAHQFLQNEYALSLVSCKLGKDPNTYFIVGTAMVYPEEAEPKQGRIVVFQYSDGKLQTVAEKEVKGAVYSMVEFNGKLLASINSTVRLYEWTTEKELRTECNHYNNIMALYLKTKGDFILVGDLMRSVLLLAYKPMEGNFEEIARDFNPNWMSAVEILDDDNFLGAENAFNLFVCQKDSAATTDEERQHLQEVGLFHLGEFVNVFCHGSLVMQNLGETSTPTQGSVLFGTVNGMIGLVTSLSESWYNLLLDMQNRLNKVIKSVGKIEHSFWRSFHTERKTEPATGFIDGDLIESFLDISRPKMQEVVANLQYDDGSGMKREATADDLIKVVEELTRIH
Nature of the assay: Helios HiBit degradation in Jurkat cells. The format is cell-based. As to conditions: for DC50: Helios, Jurkat/Helios/HiBit cells, 18 hr, read-out: EC50 (the source's name). Here is the method: For Helios, a stable Jurkat cell line was engineered using CRISPR/Cas9 to insert an in-frame HiBit tag into the carboxy-terminal reading frame of the IKZF2 gene. Test compounds were transferred to 1536 well plates using an acoustic dispenser, and Jurkat/Helios/HiBit cells in DMEM/10% FCS were plated at 10,000 cells/well in a final volume of 5 ul. Cells were incubated at 37C, 95% RH for 18 hr. Luciferase activity was measured by adding 2 ul/well of Nano-Glo reagent (Promega), incubating at RT for 30 min, and reading luminescence on a microtiter plate reader.
(§1) All substrate degradation curves were processed and evaluated using ActivityBase (IDBS), a data analysis software package. Ymin is minimum percent protein remaining.

Assay [1] concerns the target T2, CD19 CARs tagged with IKZF1 ZNF2_ZNF3 Q1F (Homo sapiens, UniProt Q13422, Q146F).
T2 construct: EC50 (Q1F degron); other: Jurkat cells, 18 hours, CAR levels normalized to no drug; Ymin (Q1F degron); Ymin (%); minimum percent protein remaining; Nluc reporter
Nature of the assay: Small-molecule screen: Q1F degron-tagged CD19 CAR levels in Jurkat cells, flow cytometry. The format is cell-based. As to conditions: for Ymin (%): minimum percent protein remaining. Here is the method: A set of potential degron-targeting compounds was screened against the Q1F degron, resulting in a set of potent degron/small-molecule pairs. Lentiviral vectors containing CD19 CARs tagged with IKZF1 ZNF2_ZNF3 Q1F Nluc were transduced into Jurkat cells. The CD19 CAR was similar to the CD19 CAR in Example 2, but comprising the ZNF2_ZNF3 Q1F degron (SEQ ID NO: 19). Transduced cells were treated with a titration of each small molecule or no drug and then incubated at 37° C. for 18 hours. Cells were washed and stained with appropriate staining reagent to measure CAR levels. The cells were incubated at 4° C. in the staining reagents for 20 mins and then washed 3 times before being read on the flow cytometer. CAR levels were normalized to cells that had not been treated with drug. EC50 and Ymin values were calculated using the resulting titration curve. This identified small molecules that potently degraded the Q1F degron-tagged CARs (Table 1).
In general terms: Flow cytometry measures light scatter and fluorescence of single cells or particles in a stream.

A further assay deals with T3, ePL-tagged Ikaros (Homo sapiens, UniProt Q13422+Q96SW2).
T3 construct: expressed in transfected cells
T3 sequence (Q13422 whole entry): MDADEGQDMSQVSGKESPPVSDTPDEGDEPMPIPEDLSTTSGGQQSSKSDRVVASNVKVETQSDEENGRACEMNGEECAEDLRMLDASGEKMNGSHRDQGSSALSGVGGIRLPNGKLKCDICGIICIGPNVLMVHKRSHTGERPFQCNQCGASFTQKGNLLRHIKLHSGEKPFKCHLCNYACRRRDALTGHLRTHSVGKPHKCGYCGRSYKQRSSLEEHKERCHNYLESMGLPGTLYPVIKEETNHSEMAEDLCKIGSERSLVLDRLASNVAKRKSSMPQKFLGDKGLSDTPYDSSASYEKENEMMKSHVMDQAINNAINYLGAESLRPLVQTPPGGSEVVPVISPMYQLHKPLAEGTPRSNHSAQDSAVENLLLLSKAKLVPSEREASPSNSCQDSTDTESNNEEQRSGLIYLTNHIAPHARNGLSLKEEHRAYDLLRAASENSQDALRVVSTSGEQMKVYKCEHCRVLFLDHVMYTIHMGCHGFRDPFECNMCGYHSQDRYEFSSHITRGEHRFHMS
T3 sequence (Q96SW2 whole entry): as the sequence (Q96SW2 whole entry) above
T3 sequence (Q16531 whole entry partner): as the sequence (Q16531 whole entry partner) above
Nature of the assay: ePL-tagged substrate degradation in DF15 multiple myeloma cells. The format is cell-based. As to conditions: for DC50: Ikaros, DF15 cells, 4 hours, read-out: EC50 (the source's name). Here is the method: (§2) DF15 multiple myeloma cells stably expressing ePL-tagged Aiolos, Ikaros, or GSPT1, and MDS-L cells stably expressing ePL-tagged CK1a were generated via lentiviral infection with pLOC-ePL-Aiolos (or Ikaros, GSPT1, or CK1a). […] Compounds were dispensed by an acoustic dispenser (ATS acoustic transfer system from EDC Biosystems) into a 384-well plate in a 10-point dose response curve using 3-fold dilutions starting at 10 μM and going down to […]. Then, 25 μL of media (RPMI-1640+10% heat inactivated FBS+25 mM Hepes+1 mM Na pyruvate+1× NEAA+1×Pen Strep Glutamine) containing 5000 of DF15 or MSD-L cells was dispensed per well. Assay plates were incubated at 37° C. with 5% CO2 for 4 hours except 20 hours for GSPT1. After incubation, 25 μL of the InCELL Hunter detection reagent working solution (DiscoverX, catalogue no. 96-0002, Fremont, Calif.) was added to each well and incubated at room temperature for 60 min protected from light. After 60 min, luminescence was read on an Envision or PHERAstar luminescence reader.
(§3) To determine the EC50 value of a compound for the degradation of a given substrate (concentration of compound that achieves half the maximum degradation observed), a four-parameter logistic model (sigmoidal dose—response model) (FIT=(A+{(B−A)/1+[(C/x)D]})) where C is the inflection point (EC50), D is the […], and A and B are the low and high limits of the fit, respectively) was used. All substrate degradation curves were processed and evaluated using ActivityBase (IDBS), a data analysis software package. Ymin is minimum percent protein remaining.

Another assay addresses T4, ePL-tagged GSPT1 (Homo sapiens, UniProt P15170+Q96SW2).
T4 construct: expressed in transfected cells
The assay is described as above. The format is cell-based. To be noted: for DC50: GSPT1, DF15 cells, 20 hours, read-out: EC50 (the source's name). Here is the method:
as §2, §3

Assay [2] deals with IKZF1 ZNF2_3 Q1F tagged CD19 CAR. Put plainly: Jurkat reporter assay (tdTomato), signaling of Q1F-tagged CAR after degradation. The format is cell-based, human. As to conditions: 1 mM pre-treatment 12 hours, co-culture with CD19-expressing K562 8 hours. Here is the method: A lentiviral vector encoding ZNF2_3 Q1F or Q1F/G6N tagged CD19 CAR was transduced into the reporter cell line. […] Levels of tdTomato in the form of the overall percent of positive cells (FIG. 12A), as well as mean fluorescence intensity (MFI, FIG. 12B) were assessed by flow cytometry. Degradation of CARs containing the ZNF2_3 Q1F degron decreased signaling by around 30% using 1 mM Compound C and by around 75% using Compound B; this relative difference correlates with the depth of degradation seen for each. Further, the reduction in activity depends upon having an intact G-motif, as the G6N mutation prevents inhibition.
(Reporter assays use an easily measured gene product as a stand-in for the process of interest.)

A further assay concerns the target T5, ePL-tagged Aiolos (Homo sapiens, UniProt Q96SW2+Q9UKT9).
T5 construct: expressed in transfected cells
Nature of the assay: ePL-tagged substrate degradation in DF15 multiple myeloma cells. The format is cell-based. As to conditions: for DC50: Aiolos, DF15 cells, 4 hours, read-out: EC50 (the source's name). Here is the method:
as §2, §1

A further assay addresses T6, ePL-tagged CK1a (Homo sapiens, UniProt P48729+Q96SW2).
T6 construct: expressed in transfected cells
Nature of the assay: ePL-tagged substrate degradation in MDS-L cells. To be noted: for DC50: CK1a, MDS-L cells, 4 hours, read-out: EC50 (the source's name). The format is cell-based. Here is the method:
as §2, §3

For assay [3], the system named is ZNF2_3 Q1F tagged CD19 CAR. Put plainly: Raji xenograft model, degron-tagged CAR T down-regulation in NSG mice. The format is in vivo. As to conditions: 6.85 mg/kg BID orally on days 0 and 1, Raji tumor. Here is the method: (§4) The ability to degrade ZNF2_3 Q1F tagged CAR in vivo was evaluated. A lentiviral vector encoding ZNF2_3 Q1F tagged CD19 CAR was transduced into activated primary T cells. Transduced cells were expanded for 10 days in media supplemented with IL2, IL7 and IL15, then frozen.
To examine the down-regulation of degron-tagged CAR in vivo in a xenograft cancer model and the impact on CAR T function, female NSG™ mice were injected with 5×10^5 of Raji tumor cells stably expressing renilla luciferase. Six days later CAR T cells were thawed, rested for 24 hours and adoptively transferred into the mice at a dose of 2×10^6 cells per animal. Mice were dosed orally with vehicle or 6.85 mg/kg Compound D BID on days 0 and 1 (FIG. 19A). Blood was drawn and tumor fluorescence measured at D1, D3, and D10 (FIG. 19A), and the proportion of CAR+T cells, as determined by staining with anti-scFv and anti-CD3 antibodies, was evaluated by flow.

In assay [4] the test system is CD19 CARs tagged with IKZF1 ZNF2_ZNF3 Q1F. Put plainly: Small-molecule screen: Q1F degron-tagged CD19 CAR levels in Jurkat cells, flow cytometry. The format is cell-based, human. To be noted: versus Helios, Aiolos, Ikaros, GSPT1, CK1a.
Assay [5] relates to ZNF2_3 Q1F tagged CD19 CAR. Put plainly: In vivo degradation of degron-tagged CAR in non-tumor bearing NSG mice. Here is the method: as §4
To determine the ability to degrade degron-tagged CAR in vivo in the absence of tumor, CAR T cells were thawed, rested for 24 hours and adoptively transferred into non-tumor bearing female NSG™ immunodeficient mice at a dose of 2×10^6 cells per animal. After 24 hours, mice were dosed orally with vehicle, 0.85 or 8.5 mg/kg Compound D (FIG. 18B). Blood was drawn 8, 24, 48 and 72 hours later (FIG. 18A), and the proportion of CAR+ T cells, as determined by staining with anti-scFv and anti-CD3 antibodies, was evaluated by flow.

Setting [6] is: Degron Q1F (from Table 1), read-out: EC50 (the source's name).
[7] abbreviates: Jurkat assay described in Example 5, read-out: EC50 for the Q1F degron.
Where [8] appears, read: Jurkat cells, 18 hours, CAR levels normalized to no drug.
Where [9] appears, read: Jurkat cells, 18 hours, CAR levels normalized to no drug, read-out: EC50 (Q1F degron).

Data on two compounds can be found in patent US20230095912A1, “Composition and Methods for Selective Degradation of Engineered Proteins” (Celgene Corporation, priority 2021, published 2023).

Structures are written as SMILES. Read-outs that look alike come from different tables or passages of the source.

T6 sequence (P48729 whole entry): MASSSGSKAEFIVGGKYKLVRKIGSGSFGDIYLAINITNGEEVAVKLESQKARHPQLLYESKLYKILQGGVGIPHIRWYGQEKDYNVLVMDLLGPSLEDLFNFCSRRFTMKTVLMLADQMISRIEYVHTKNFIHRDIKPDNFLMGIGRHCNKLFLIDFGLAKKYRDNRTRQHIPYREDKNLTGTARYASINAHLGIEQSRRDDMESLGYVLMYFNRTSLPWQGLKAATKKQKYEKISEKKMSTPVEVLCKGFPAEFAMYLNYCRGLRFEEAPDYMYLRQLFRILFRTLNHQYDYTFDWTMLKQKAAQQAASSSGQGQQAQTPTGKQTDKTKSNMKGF
T6 sequence (Q96SW2 whole entry): as the sequence (Q96SW2 whole entry) above
T6 sequence (Q16531 whole entry partner): as the sequence (Q16531 whole entry partner) above
T5 sequence (Q9UKT9 whole entry): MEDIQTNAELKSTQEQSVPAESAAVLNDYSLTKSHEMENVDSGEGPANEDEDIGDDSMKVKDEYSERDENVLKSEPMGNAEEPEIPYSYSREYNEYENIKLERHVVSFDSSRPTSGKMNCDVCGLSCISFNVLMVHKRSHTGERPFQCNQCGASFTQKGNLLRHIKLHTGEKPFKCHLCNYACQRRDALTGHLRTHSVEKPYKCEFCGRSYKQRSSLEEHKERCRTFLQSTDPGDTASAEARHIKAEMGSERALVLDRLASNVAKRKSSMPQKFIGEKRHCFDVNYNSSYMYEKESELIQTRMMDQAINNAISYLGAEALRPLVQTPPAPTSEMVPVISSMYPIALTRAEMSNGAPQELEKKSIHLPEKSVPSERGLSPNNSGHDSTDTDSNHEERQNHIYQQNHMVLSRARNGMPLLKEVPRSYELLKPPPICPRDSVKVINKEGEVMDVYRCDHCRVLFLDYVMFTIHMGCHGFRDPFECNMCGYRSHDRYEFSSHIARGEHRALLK
T5 sequence (Q96SW2 whole entry): as the sequence (Q96SW2 whole entry) above
T5 sequence (Q16531 whole entry partner): as the sequence (Q16531 whole entry partner) above
T4 sequence (P15170 whole entry): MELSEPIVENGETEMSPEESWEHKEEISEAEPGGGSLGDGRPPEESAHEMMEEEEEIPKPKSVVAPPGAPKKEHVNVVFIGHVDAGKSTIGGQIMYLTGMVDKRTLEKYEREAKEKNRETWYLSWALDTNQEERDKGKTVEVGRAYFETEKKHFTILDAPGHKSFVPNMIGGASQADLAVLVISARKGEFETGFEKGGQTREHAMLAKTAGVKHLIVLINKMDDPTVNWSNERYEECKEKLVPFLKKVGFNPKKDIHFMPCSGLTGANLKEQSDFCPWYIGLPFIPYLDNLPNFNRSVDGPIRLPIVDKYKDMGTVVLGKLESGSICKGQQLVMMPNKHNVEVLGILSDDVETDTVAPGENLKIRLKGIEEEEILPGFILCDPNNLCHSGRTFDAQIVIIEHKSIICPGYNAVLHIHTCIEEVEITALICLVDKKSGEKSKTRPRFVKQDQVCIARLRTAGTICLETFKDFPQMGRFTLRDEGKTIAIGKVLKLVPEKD
T4 sequence (Q96SW2 whole entry): as the sequence (Q96SW2 whole entry) above
T4 sequence (Q16531 whole entry partner): as the sequence (Q16531 whole entry partner) above
T2 sequence (Q13422 whole entry Q146F): as the sequence (Q13422 whole entry) above, with Q146F counted along it

As to `O=C1CCC(N2Cc3cc(C(=O)N4Cc5cccnc5C4)ccc3C2=O)C(=O)N1` (stereo not shown) [Compound B, 3-(5-(6,7-dihydro-5H-pyrrolo[3,4-b]pyridine-6-carbonyl)-1-oxoisoindolin-2-yl)piperidine-2,6-dione], the “ubiquitination of IKZF1 ZNF2 Q1F” value in the assay on IKZF1 ZNF2 Q1F is listed as “heavily ubiquitinated”. In addition, the “Ymin (%)” value worked out at 65% on Helios; 1.7% in [1] (Degron Q1F (from Table 1)); 91% at ePL-tagged Ikaros; 72% at ePL-tagged GSPT1; 93% on ePL-tagged Aiolos; 82% at ePL-tagged CK1a. At Helios, the “degradation of Helios (in words)” value is reported as “some degradation activity against Helios”. Further, the DC50 at Helios was above 10000 nM; in assay [1] (setting [6]), 4.8 nM; in [1] (setting [7]), below 5 nM; in assay [1] (setting [9]), 4.8 nM; at ePL-tagged Ikaros it was above 10000 nM; at ePL-tagged GSPT1, 54 nM. In addition, the DC50 on ePL-tagged Aiolos and at ePL-tagged CK1a was above 10000 nM throughout. In addition, in [1] (setting [8]), the “Ymin (Q1F degron)” value came to 1.7%. The “degradation of GSPT1 (in words)” value on ePL-tagged GSPT1 is “some degradation activity against GSPT1”. In addition, in assay [2], the “decrease of signaling (tdTomato reporter)” value is recorded as “around 75%”.
As for `O=C1CCC(N2Cc3cc(C4CCN(Cc5ccc6ncsc6c5)CC4)ccc3C2=O)C(=O)N1` (stereo not shown) [Compound D, 3-[5-[1-(1,3-benzothiazol-6-ylmethyl)-4-piperidyl]-1-oxo-isoindolin-2-yl]piperidine-2,6-dione], the “expansion and cytolytic function of degron-tagged CAR T cells” value in [3] was “decreased expansion and cytolytic function”. Further, the “selectivity for the Q1F degron (in words)” value in [4] is recorded as “selective for the Q1F degron”. Further, the “Ymin (%)” value on Helios is 24%; in assay [1] (Degron Q1F (from Table 1)), 4.2%; at ePL-tagged Ikaros, 93%; at ePL-tagged GSPT1, 96%; at ePL-tagged Aiolos, 87%; on ePL-tagged CK1a it was 81%. In addition, the “degradation of Helios (in words)” value on Helios is “some degradation of Helios”. The DC50 was 460 nM at Helios; 0.7 nM in assay [1] (setting [6]); below 1 nM in assay [1] (setting [7]); 0.7 nM in [1] (setting [9]); above 10000 nM at ePL-tagged Ikaros; above 10000 nM at ePL-tagged GSPT1. The DC50 on ePL-tagged Aiolos and at ePL-tagged CK1a was above 10000 nM in each case. Moreover, the “Ymin (Q1F degron)” value in assay [1] (setting [8]) is given as 4.2%. Besides, the “CD3+ CAR+ cells remaining” value in assay [5] (0.85 or 8.5 mg/kg orally (both doses), blood at 8 hours) was below 5%. For the same compound, the “CAR level in vivo” value in [5] (0.85 or 8.5 mg/kg orally, 24 hours) is recorded as “remained significantly degraded”. Besides, in assay [5] (48 hours after dosing), the “CAR expression in vivo” value is on record as “substantially restored”.
